Assay results from patent US8258116B2, “Combination therapy for the treatment of HCV infection” (Vertex Pharmaceuticals Incorporated, priority 2007, dated 2012).

What was measured:
[1] = system: HCV NS3 protease variant replicon A156T; test: 2-Day HCV Replicon IC50 Assay, A156T; type: cell-based
Procedure: (§1) Huh-7 cells were propagated in Dulbecco's modified Eagle's medium (DMEM, JRH Biosciences, Lenexa, Kans.) supplemented with 10% heat-inactivated FBS (fetal bovine serum), 2 mM L-glutamine, and nonessential amino acids (JRH). The cells were transfected with an in vitro transcribed HCV replicon RNA identical to replicon 1377neo/NS3-3′/wt as described by Lohmann et al. (1999). Stable cell clones were selected and maintained in the presence of 250 μg/mL G418 (Invitrogen, Carlsbad, Calif.). […] The HCV NS3 protease variant replicons were constructed in the background of the mADE wild-type replicon as described previously [Chao Lin et al., “In Vitro Resistance Studies of Hepatitis C Virus Serine Protease Inhibitors, VX-950 and BILN 2061: Structural Analysis Indicates Different Resistance Mechanisms,” Journal of Biological Chemistry, 279(17); pp. 17508-17514 (2004)]. The replicon cells were propagated in DMEM supplemented with 10% FBS, 2 mM L-glutamine, nonessential amino acids, and 250 μg/mL G418. The cells were split twice per week in fresh media upon reaching confluence. There are approximately 200-300 copies of HCV RNA per 24-2 replicon cell.
(§2) HCV replicon RNA from cells was measured using the Quantigene Discover XL kit (Panomics Inc., Fremont Calif.) as per the manufacturer's instructions. Briefly, compound-treated replicon cells were lysed and immobilized on to capture plates using HCV specific oligonucleotides (designed based on the 5′ UTR region of HCV 1b genome sequence AJ238799 in the GenBank database) over night and the relative amounts of captured RNA was measured using oligonucleotide probe sets as per the manufacturer's instructions.
(§3) On the day prior to the assay, 10,000 replicon cells were plated per well of a 96-well plate and allowed to attach and grow overnight in DMEM (Invitrogen, Carlsbad, Calif.) supplemented with 10% heat-inactivated FBS (JRH Biosciences, Lenexa, Kans.), 2 mM L-glutamine (Invitrogen), nonessential amino acids (Invitrogen) and 250 μg/ml G418 (Invitrogen). Next day, the medium was removed and antiviral agents that were serially diluted in DMEM containing 2% FBS and 0.5% DMSO (Sigma Chemical Co., St. Louis, Mo.) without G418, was added. The replicon cells were incubated with the antiviral agents for 48 h. HCV replicon RNA from cells was measured using the Quantigene Discover XL kit (Panomics Inc., Fremont Calif.) as per the manufacturer's instructions. Briefly, compound-treated replicon cells were lysed and immobilized onto capture plates using HCV specific oligonucleotides overnight and the relative amounts of captured RNA was measured using oligonucleotide probe sets as per the manufacturer's instructions. Unless indicated otherwise, each data point represents the average of three replicates. The IC50 is the concentration of the compound at which the HCV replicon RNA level in cells is reduced by 50% as compared to the untreated replicon cell controls. To monitor the effect of compounds on cell proliferation or cell viability, replicon cells were treated with serially diluted compounds for 48 h, after which cell viability was determined using a CellTiter Glo assay (Promega, Madison, Wis.). Each CC50 is derived from at least two replicates and is the concentration of the compound at which the number of viable cells is reduced by 50% as compared to untreated cell controls. The IC50 and CC50 was determined using 4-parameter curve fitting in the SoftMax Pro program (Molecular Devices, Sunnyvale, Calif.).
(§4) The sensitivity of NS3 protease variants to ribavirin and interferon was assessed in a 2-Day HCV Replicon IC50 Assay.

[2] = system: HCV genotype 1; test: phase 1b trial (Study VX04-950-101); type: in vivo; settings: subjects infected with HCV genotype 1, phase 1b
From the text: The degree to which a subject responds to treatment and the rate at which viral rebound is observed could in part be due to genotypic differences in sensitivity to the protease inhibitor. The rapid replication rate of HCV, along with the poor fidelity of its polymerase, gives rise to an accumulation of mutations throughout its genome [P. Simmonds, “Genetic diversity and evolution of hepatitis C virus—15 years on,” J. Gen. Virol., 85, pp. 3173-88 (2004)]. The degree to which sequence variability in the protease region affects the catalytic efficiency of the enzyme or the binding of an inhibitor is not known. Additionally, the generation of numerous viral genomes with remarkable sequence variation presents potential problems of emerging drug resistant virus in subjects treated with antiviral therapy. Indeed, drug resistance against antiviral drugs, such as HIV protease inhibitors, is well documented [Johnson et al., Top. HIV Med., 12, pp. 119-24 (2004)]. […] Agents Chemother., 48, pp. 2260-6 (2004); Trozzi et al., “In vitro selection and characterization of hepatitis C virus serine protease variants resistant to an active-site peptide inhibitor,” J. Virol. 77, pp. 3669-79 (2003)]. […]

[3] = system: HCV replicon Wild Type (mADE); test: 2-Day HCV Replicon IC50 Assay, wild type replicon; type: cell-based; settings: Wild Type replicon
Procedure: as §1, §2, §3, §4

[4] = system: HCV NS3 protease variant replicon A156V; test: 2-Day HCV Replicon IC50 Assay, A156V; type: cell-based
Procedure: as §1, §2, §3, §4

[5] = Hepatitis C virus, read-out: Avg. IC50 ± STDEV

SMILES: CCC[C@H](NC(=O)[C@@H]1[C@H]2CCC[C@H]2CN1C(=O)[C@@H](NC(=O)[C@@H](NC(=O)c1cnccn1)C1CCCCC1)C(C)(C)C)C(=O)C(=O)NC1CC1 [VX-950]
- Fold Change ([1]; A156T, ratio of mutant IC50 to Wild type IC50 for the same inhibitor): >65.2
- IC50 [1, 5]: > 30 µM
- antiviral activity [2]: substantial antiviral activity
- IC50 ([3]; Hepatitis C virus, Table 8, read-out: Avg. IC50 ± STDEV): 0.46 ± 0.101 µM
- Fold Change ([3]; ratio of IC50 to Wild type IC50 for the same inhibitor): 1 ± 0.2
- Fold Change ([4]; A156V, ratio of mutant IC50 to Wild type IC50 for the same inhibitor): >65.2
- IC50 [4, 5]: > 30 µM
